Measurements as given in article PMC3510080, “Identification of Compounds with Anti-Proliferative Activity against Trypanosoma brucei brucei Strain 427 by a Whole Cell Viability Based HTS Campaign” (PLoS Neglected Tropical Diseases, 2012).
≈ marks a conversion by molar mass, not a printed value. Where “and” joins values, the source holds several entries; their conditions need not be identical. Equal values may be shown once. Read-outs that look alike come from different tables or passages of the source.

Key:
[1] = test system: T.b. brucei bloodstream form lister 427; assay: T.b. brucei Alamar Blue viability estimation assay (384-well HTS, retest and rescreen); format: cell-based, Trypanosoma brucei brucei; settings: for Estimated Selectivity Index: retest campaign; for Primary Screening Activity 10.2µM (%): single point, inhibition relative to controls
Experimental: T.b. brucei lister 427 cells were maintained in log phase growth in 25 cm^2 tissue culture flasks (Corning, NY, USA) by sub-culturing at either 24 or 48 hour intervals. Cells were grown in HMI-9 medium, supplemented with 10% fetal calf serum (FCS) and 100 IU/ml penicillin/streptomycin (Invitrogen, Carlsbad, California, USA) with incubation at 5% CO2 at 37°C in humidified conditions. HEK293 cells were maintained in high glucose DMEM with L-glutamine, supplemented with 1× non-essential amino acids (NEAA; Invitrogen, USA) and 1 mM sodium pyruvate. Growth conditions were in 5% CO2 at 37°C, under humidified conditions.
All reagent and cell additions were made with a Multidrop liquid handler (Thermo Scientific, Newington, NH, USA) under sterile conditions. Fifty-five microliters of 2000 cells/mL of T.b. brucei in HMI-9 medium were added to a black, clear-bottomed 384-well lidded plate (BD Biosciences, Franklin Lanes, NJ, USA). Cells were incubated for 24 hours at 37°C in an atmosphere of 5% CO2 before addition of 5 µl of compounds/DMSO for control wells. Compounds suspended in 100% DMSO or 100% DMSO as controls were pre-diluted 1∶21 in high glucose DMEM without FCS by using a Minitrack robotic liquid handler (PerkinElmer, Waltham, MA, USA). Five microliters of diluted sample was added to the plate to give a final DMSO concentration of 0.417% in the assay. Cells were incubated for an additional 48 hours at 37°C. Ten microliters of 70% Alamar Blue (Biosource, Bethesda, MD, USA) was added to each well (diluted in HMI-9 medium supplemented with 10% FCS) to a final concentration of 10% in the assay. The plate was incubated for two hours under the same conditions, then incubated for 22 hours in the dark at room temperature. Wells were read at 535 nm (excitation) and 590 nm (emission) wavelengths on a Victor II Wallac plate reader (PerkinElmer, USA). Specific dilutions are explained further in the primary and retest assay methodology. Reference drugs used in the assay were pentamidine (Sigma-Aldrich, St Louis, MO, USA), diminazene aceturate (Sigma-Aldrich, USA) and puromycin (Calbiochem, San Deigo, CA, USA). Pentamidine is used to treat patients with HAT and diminazene is a veterinary drug used against T.b. brucei to combat infections in cattle.
Primary screening of the library, consisting of 87,296 compounds in two hundred and forty eight 384-well plates, was undertaken in single point against T.b. brucei. Stock solutions consisted of test compound at a concentration of 5 mM in 100% DMSO. One µl of each compound stock solution was diluted by the addition of 40 µl of dilution medium (high glucose DMEM without FCS) by a multidrop liquid handler (Thermo Scientific, USA). A 5 µl sample of this diluted solution was then added to the trypanosome assay plate. The final concentration of test compound in the assay was […] and that of DMSO was 0.42% v/v. Compounds were screened over a total of 11 days, at an average of 80 plates per day, taking into consideration that the assay incubation was 3 days total. Test compounds were added to plates in batches of 20 at two hour intervals, to maintain the timing of additions and reads.
Compound activity was calculated as the percentage inhibition in relation to positive and negative controls. […] These in-plate negative controls were used in an effort to normalise compound activity in relation to any plate to plate variation in the assay signal. A whole 384-well control plate was included in each day's screening, one per 20 compound plates containing half a plate of 2 µM pentamidine for the positive assay control, and half a plate of 0.42% v/v DMSO as a negative control. The positive assay control was used to calculate compound activity for batches of 20 compound plates. As well providing the positive control data, these whole plate controls were used for the calculation of the Z' to measure the reproducibility of the assay.

[2] = test system: T.b. brucei; assay: Determination of the cidal action of compounds (MIC and parasite counts); format: cell-based, Trypanosoma brucei brucei; settings: for MIC: Trypanosoma brucei, minimum concentration with plateau of activity (>95%) in Alamar Blue concentration response curve, read-out: minimum inhibitory concentration (MIC); for action cidal or static at the MIC: parasites cleared by 72 hours at MIC; for incubation time at the MIC for complete clearance of T.b. brucei parasites: cell counts at 24, 48 and 72 hours (29 hours from Presto Blue)
From the text: The MIC was extrapolated as the minimum concentration at which there was a plateau of activity in the assay (>95% activity).

[3] = test system: L. donovani strain MHOM/ET/67/L82 axenic amastigotes; assay: L. donovani axenic amastigote fluorescence assay; SI versus L6 cells; format: cell-based, Leishmania donovani; settings: for IC50: axenic amastigotes, 70 h, read-out: Compound activity L.D (IC50); for Selectivity Index L.D: relative to L6 cells
Experimental: L6 rat skeletal myoblasts, [29] were purchased from the American Type Culture Collection (ATCC, Rockville, MD, USA; ATCC number CRL 1458). This cell line was used for cytotoxicity testing to calculate an SI against T.b. rhodesiense and screened alongside the T.b. rhodesiense, P. falciparum, T. cruzi and L. donovani assays. L6 were also the host cells for the T. cruzi assay. Assays were performed in 96-well microtiter plates, each well containing 100 µl of RPMI 1640 medium supplemented with 1% L-glutamine (200 mM), 10% FCS, and 4000 L6 cells. Serial drug dilutions of eleven 3-fold dilution steps covering a range from 100 to 0.002 µg/ml were prepared. After 70 hours of incubation the plates were inspected under an inverted microscope to assure growth of the controls and sterile conditions. Ten µl of resazurin solution (resazurin, 12.5 mg in 100 ml double-distilled water) was then added to each well and the plates incubated for another 2 hours. Then the plates were read with a Spectramax Gemini XS microplate fluorometer (Molecular Devices Cooperation, Sunnyvale, CA, USA) using an excitation wavelength of 536 nm and an emission wavelength of 588 nm. Data was analysed using the microplate reader software Softmax Pro (Molecular Devices, USA). Podophyllotoxin was used as a positive control in the assay.
Amastigotes of L. donovani strain MHOM/ET/67/L82 were grown in axenic culture at 37°C in SM medium at pH 5.4 supplemented with 10% heat-inactivated FCS under an atmosphere of 5% CO2 in air. One hundred µl of culture medium containing 10^5 amastigotes from axenic culture with or without a serial drug dilution were seeded in 96-well microtitre plates. Serial drug dilutions of eleven 3-fold dilution steps covering a range from 100 to 0.002 µg/ml were prepared. After 70 hours of incubation the plates were inspected under an inverted microscope to assure growth of the controls and sterile conditions. Ten µl of resazurin solution (12.5 mg resazurin dissolved in 100 ml distilled water) were then added to each well and the plates incubated for another 2 hours. The plates were then read with a Spectramax Gemini XS microplate fluorometer (Molecular Devices, USA) using an excitation wavelength of 536 nm and an emission wavelength of 588 nm. Data was analysed using the software Softmax Pro (Molecular Devices, USA). Decrease of fluorescence ( = inhibition) was expressed as percentage of the fluorescence of control cultures and plotted against the drug concentrations. From the sigmoidal inhibition curves the IC50 values were calculated. Miltefosine served as a known drug control in this assay.

[4] = Trypanosoma brucei, re-synthesised/re-purchased compounds, three experiments, two replicates each, read-out: Compound activity T.B (IC50)
[5] = Trypanosoma brucei, read-out: Activity (IC50 value) AB assay, Alamar Blue-based HTS assay format, run with time to kill study
[6] = Trypanosoma brucei, retest campaign from stock solutions, duplicate, read-out: Retest IC50 T.b.brucei
[7] = HEK293 IC50 / T.b. brucei IC50, > if less than 50% activity at 75.8 µM in HEK293
[8] = Trypanosoma brucei, Alamar Blue-based HTS assay format, run with time to kill study, read-out: Activity (IC50 value) AB assay
[9] = re-synthesised/re-purchased compounds, three experiments, two replicates each, read-out: Compound activity T.B (IC50)
[10] = Trypanosoma brucei, read-out: Compound activity T.B (IC50), re-synthesised/re-purchased compounds, three experiments, two replicates each
[11] = Trypanosoma brucei, 13 control plates, triplicate dose-response, read-out: IC50 of reference compounds, primary screening campaign
[12] = Trypanosoma brucei, reference compounds, read-out: IC50 against T.b. brucei, retest screening campaign

Row | Structure (SMILES) | IC50 [1, 4] | IC50 [1, 6] | Estimated Selectivity Index ([1]; HEK293 IC50 / T.b. brucei IC50) | Primary Screening Activity 10.2µM (%) [1] | MIC [2] | action cidal or static at the MIC [2] | IC50 ([3]; Leishmania donovani, L6, 70 h) | Selectivity Index L.D [3] | Selectivity Index T.B [1, 7] | IC50 [1, 8] | IC50 [1, 9] | IC50 [1, 10] | also measured
1 | O=C(NCCc1n[nH]c(-c2ccc(F)cc2)n1)c1cccc(F)c1 [Compound 2] | 4000 ± 55.5 nM | 1930 nM | 21.6 | 99.5% | 19.8 µM (≈ 6.5 µg/mL) | cidal | 47.3 ± 0.324 µM | 2.53 | – | – | – | – | IC50 [1, 5]: 4710 ± 272 nM
2 | CC(C)(C)C(=O)NCCc1csc(-c2cccc(F)c2)n1 [Compound 1] | 790 nM | 441 nM | 94.6 | 100% | 3.97 µM (≈ 1.22 µg/mL) | cidal | 46.1 ± 22.4 µM | 1.35 | >96.0 | 1100 ± 65.1 nM | 785 ± 82.9 nM | – | –
3 | Cc1cc(O)nc(-n2nc(C)cc2NC(=O)C2CCCC2)n1 [Compound 4] | – | – | – | – | – | – | 0.488 ± 0.154 µM | 1.84 | 25 and 24.6 | – | 3080 ± 290 nM | 3100 nM | –
4 | CCOc1ccc(OCc2ccc(C(=O)N3CCCC(C)C3)cc2)cc1 (centres unmarked) [Compound 3] | 1100 nM | 2560 nM | 16.3 | 99% | – | – | 16.1 ± 1.7 µM | 3.09 | >67.1 | – | 1130 ± 347 nM | – | –
5 | COc1ccc(C[C@H](N)C(=O)N[C@H]2[C@@H](O)[C@H](n3cnc4c(N(C)C)ncnc43)O[C@@H]2CO)cc1 [Puromycin, puromycin, reference compound] | – | – | less than 10 | – | 1.15 µM (≈ 0.542 µg/mL) | – | – | – | – | 64.1 ± 0.24 nM | – | – | Selectivity Index T.B [1]: 8.90; IC50 ([1]; 13 control plates, triplicate dose-response, read-out: IC50 of reference compounds, primary screening campaign): 61.9 ± 6.8 nM; IC50 [1, 11]: 61.9 ± 6.8 nM; IC50 ([1]; Trypanosoma brucei, read-out: Reference Compound Activity T.B (IC50), during rescreening of resynthesized compounds): 58.4 ± 0.769 nM; IC50 [1, 12]: 138 ± 15.7 nM; incubation time at the MIC for complete clearance of T.b. brucei parasites [2]: 24 h
6 | O=C(Nc1ccc(Cl)c(-c2nc3ncccc3o2)c1)c1ccco1 [Compound 7] | – | – | – | 100% | 0.99 µM (≈ 0.336 µg/mL) | cidal | 1.8 µM | – | – | 198 ± 1.28 nM | 218 ± 7.14 nM | 220 nM | IC50 ([1]; Trypanosoma brucei, read-out: Retest IC50 T.b.brucei, retest campaign from stock solutions, duplicate): 169 nM; population remaining at the MIC, 24 hours ([2]; 24 hours): 0.41%; population remaining at the MIC, 48 hours ([2]; 48 hours): 0.06%; IC50 [3]: 1.82 ± 0.277 µM
7 | N=C(N)c1ccc(OCCCCCOc2ccc(C(=N)N)cc2)cc1 [Pentamidine, pentamidine, reference compound] | – | – | – | – | 0.04 µM (≈ 0.0136 µg/mL) | – | – | – | – | 5.81 ± 0.707 nM | – | – | Selectivity Index T.B [1]: >283; IC50 [1, 11]: 14.7 ± 4.7 nM; IC50 ([1]; Trypanosoma brucei, during rescreening of resynthesized compounds, read-out: Reference Compound Activity T.B (IC50)): 3.52 ± 0.36 nM; IC50 [1, 12]: 7.8 ± 3.6 nM; incubation time at the MIC for complete clearance of T.b. brucei parasites [2]: 72 h
8 | CCC(C)NC(=O)c1nc(-c2ccccc2)cnc1N (centres unmarked) [Compound 6] | 1200 nM | – | – | – | 9.92 µM (≈ 2.68 µg/mL) | cidal | 34 ± 5.6 µM | 0.525 | >65.3 | – | 1160 ± 304 nM | – | IC50 [1, 5]: 160 ± 40.3 nM
9 | CCS(=O)(=O)N1CCCc2ccc(NS(=O)(=O)c3ccccc3F)cc21 [Compound 5] | – | – | – | – | – | – | 6.6 ± 1.56 µM | 3.29 | >35.9 | – | 2110 ± 130 nM | 2100 nM | –
10 | CCc1ccccc1N=C(NCCN1CCOCC1)NC(=O)c1ccccc1 [Compound 8] | 2600 nM | – | – | – | – | – | > 263 µM | – | >29.0 | – | 2610 ± 320 nM | – | –
